According to patent US7160874B2, “Phenylalanine derivatives” (Ajinomoto Co., Inc., priority 1999, dated 2007):
Like-named read-outs stand apart in the source and are kept apart here.

Tests used:
[1] = target: T1, integrin α4β1 (Homo sapiens, UniProt P05556+P13612); assay: VCAM antagonist activity (VCAM-1/α4β1 binding assay); format: cell-based
T1 construct: cell strain Jurkat (ATCC TIB-152) of human T cells, known to express integrin α4β1; host or cells: Jurkat (human T cell line)
Description: (Test Example) VCAM Antagonist Activity (VCAM-1/α4β1 Binding Assay):
The capacity of a test substance antagonistic to the binding of cell strain Jurkat (ATCC TIB-152) of human T cells, known to express integrin α4β1, to VCAM-1 was determined.
(§1) 100 μl/well of a solution (500 ng/ml) of recombinant human VCAM-1 (R & D systems) solution diluted with buffer A (0.1 M NaHCO3, pH 9.6) was added to a micro titer plate having 96 wells (Nunc Maxisorp). After the incubation at 4° C. overnight, unbound VCAM-1 was removed by washing once with PBS. After completion of the washing, a buffer (buffer B) obtained by diluting Block Ace® (Dainippon Pharmaceutical Co., Ltd.) with PBS to 1/4 concentration was added in an amount of 150 μl/well. After the incubation at room temperature for 1 hour, buffer B was removed and the plate was washed with PBS once.
Jurkat cells were washed with Dulbecco modified Eagle medium (SIGMA, hereinafter referred to as “DMEM”) twice and then incubated in DMEM containing 10 μg/ml of Calcein-AM (Wako Pure Chemical Industries, Ltd.) at 37° C. in dark place for 30 minutes to label with fluorescence. The cells were again suspended in a binding buffer (20 mM HEPES, DMEM containing 0.1% BSA).
(§2) 50 μl of a test substance of various concentrations obtained by the dilution with the binding buffer was added to the plate. Immediately thereafter, 50 μl (final volume: 100 μl/well) of the fluorescent Jurkat cells (4×10^6 cells/ml) were added thereto, and they were incubated at room temperature for 30 minutes. After the shaking on a plate shaker (IKA MTS-4) at 800 rpm for 30 seconds, the solution was immediately removed to remove the unbound cells. The fluorescence quantity of the bound cells remaining in the wells was determined with a fluorescent plate reader (Wallac 1420 ARVO multi-label counter) (filter excitation wave length: 485 nm, emission wave length: 535 nm). The fluorescent strength thus obtained is proportional to the number of Jurkat cells bound to VCAM-1 and remaining on the plate. The binding rate of each test material in various concentrations was determined while the fluorescent strength of the test material-free well was determined to be 100%. The concentration IC50 for the 50% binding inhibition was calculated.
(§3) The activities were classified into group A wherein IC50 was 0.02 μmol/l or below, group B wherein IC50 was higher than 0.02 μmol/l and not above 0.1 μmol/l, group C wherein IC50 was higher than 0.1 μmol/l and not above 2 μmol/l, and group D wherein IC50 was higher than 2 μmol/l and not above 10 μmol/l.

[2] = target: T2, integrin α4β7 (Homo sapiens, UniProt P13612+P26010); assay: VCAM antagonistic activity (VCAM-1/α4β7 binding assay); format: cell-based
T2 construct: lymphoma cell strain RPMI-8866 of human B cells, known to express integrin α4β7; endogenous in cells; host or cells: RPMI-8866 (human B lymphoma cell line)
T2 sequence (P13612 34-1032): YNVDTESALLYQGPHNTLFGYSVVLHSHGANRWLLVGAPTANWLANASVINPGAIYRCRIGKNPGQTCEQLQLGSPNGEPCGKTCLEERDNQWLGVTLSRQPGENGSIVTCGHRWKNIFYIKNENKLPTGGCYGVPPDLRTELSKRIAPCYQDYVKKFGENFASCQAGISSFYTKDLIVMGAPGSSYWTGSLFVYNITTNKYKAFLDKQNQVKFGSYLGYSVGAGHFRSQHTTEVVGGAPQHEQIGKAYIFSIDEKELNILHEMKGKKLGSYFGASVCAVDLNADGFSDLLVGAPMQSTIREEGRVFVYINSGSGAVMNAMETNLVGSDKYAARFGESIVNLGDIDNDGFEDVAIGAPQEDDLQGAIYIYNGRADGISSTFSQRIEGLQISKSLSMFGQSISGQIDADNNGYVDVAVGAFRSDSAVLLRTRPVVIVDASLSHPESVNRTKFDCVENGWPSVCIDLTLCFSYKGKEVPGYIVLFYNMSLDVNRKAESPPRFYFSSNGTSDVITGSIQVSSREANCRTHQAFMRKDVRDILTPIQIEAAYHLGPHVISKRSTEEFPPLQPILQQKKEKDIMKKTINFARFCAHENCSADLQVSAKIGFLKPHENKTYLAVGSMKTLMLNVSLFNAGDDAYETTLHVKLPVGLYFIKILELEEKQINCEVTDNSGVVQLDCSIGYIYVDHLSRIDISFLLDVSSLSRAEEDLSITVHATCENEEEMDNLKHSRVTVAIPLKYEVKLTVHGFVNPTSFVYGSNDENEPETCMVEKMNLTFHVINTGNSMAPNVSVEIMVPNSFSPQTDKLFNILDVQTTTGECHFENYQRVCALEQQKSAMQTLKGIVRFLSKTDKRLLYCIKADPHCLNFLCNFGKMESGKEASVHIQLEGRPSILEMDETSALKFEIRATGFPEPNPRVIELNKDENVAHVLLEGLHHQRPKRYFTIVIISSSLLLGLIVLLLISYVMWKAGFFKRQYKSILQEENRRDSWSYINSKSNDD
T2 sequence (P26010 20-798): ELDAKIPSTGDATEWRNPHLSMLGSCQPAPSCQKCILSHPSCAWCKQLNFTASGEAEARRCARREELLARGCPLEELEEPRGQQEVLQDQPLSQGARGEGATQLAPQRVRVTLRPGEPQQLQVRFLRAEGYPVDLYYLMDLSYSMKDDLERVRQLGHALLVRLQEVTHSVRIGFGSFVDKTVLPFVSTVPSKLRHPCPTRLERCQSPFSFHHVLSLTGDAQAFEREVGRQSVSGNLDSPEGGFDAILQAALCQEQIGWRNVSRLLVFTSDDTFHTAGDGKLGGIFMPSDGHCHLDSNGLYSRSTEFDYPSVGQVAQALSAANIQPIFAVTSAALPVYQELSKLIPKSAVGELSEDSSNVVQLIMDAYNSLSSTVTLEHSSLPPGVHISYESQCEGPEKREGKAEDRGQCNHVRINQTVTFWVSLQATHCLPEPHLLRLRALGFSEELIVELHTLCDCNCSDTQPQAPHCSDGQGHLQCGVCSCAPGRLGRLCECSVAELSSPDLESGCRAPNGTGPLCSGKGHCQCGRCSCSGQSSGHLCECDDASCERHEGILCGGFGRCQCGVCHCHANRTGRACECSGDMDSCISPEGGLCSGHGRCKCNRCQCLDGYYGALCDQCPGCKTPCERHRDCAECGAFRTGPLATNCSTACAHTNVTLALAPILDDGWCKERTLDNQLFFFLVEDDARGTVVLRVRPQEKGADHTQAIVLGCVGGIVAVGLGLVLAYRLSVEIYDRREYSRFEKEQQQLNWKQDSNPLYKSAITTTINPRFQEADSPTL
Description: (Test Example) VCAM Antagonistic Activity (VCAM-1/α4β7 Binding Assay):
The capacity of a test substance antagonistic to the binding of lymphoma cell strain RPMI-8866 of human B cells, known to express integrin α4β7, to VCAM-1 was determined.
as §1
RPMI-8866 cells were incubated in Dulbecco modified Eagle medium containing 10 μg/ml of Calcein-AM (Wako Pure Chemical Industries, Ltd.) (SIGMA, hereinafter referred to as “DMEM”) at 37° C. for 30 minutes to label with fluorescence. The cells were again suspended in a binding buffer (20 mM HEPES, DMEM containing 0.1% BSA) containing 4 mM of MnCl2.
as §2, with “RPMI-8866” for “Jurkat”
as §3

[3] = Jurkat cells binding to VCAM-1, read-out: VCAM antagonistic activity (IC50) α4β1
[4] = RPMI-8866 cells binding to VCAM-1, read-out: VCAM antagonistic activity (IC50) α4β7

T1 sequence (P05556 21-798, one chain of several): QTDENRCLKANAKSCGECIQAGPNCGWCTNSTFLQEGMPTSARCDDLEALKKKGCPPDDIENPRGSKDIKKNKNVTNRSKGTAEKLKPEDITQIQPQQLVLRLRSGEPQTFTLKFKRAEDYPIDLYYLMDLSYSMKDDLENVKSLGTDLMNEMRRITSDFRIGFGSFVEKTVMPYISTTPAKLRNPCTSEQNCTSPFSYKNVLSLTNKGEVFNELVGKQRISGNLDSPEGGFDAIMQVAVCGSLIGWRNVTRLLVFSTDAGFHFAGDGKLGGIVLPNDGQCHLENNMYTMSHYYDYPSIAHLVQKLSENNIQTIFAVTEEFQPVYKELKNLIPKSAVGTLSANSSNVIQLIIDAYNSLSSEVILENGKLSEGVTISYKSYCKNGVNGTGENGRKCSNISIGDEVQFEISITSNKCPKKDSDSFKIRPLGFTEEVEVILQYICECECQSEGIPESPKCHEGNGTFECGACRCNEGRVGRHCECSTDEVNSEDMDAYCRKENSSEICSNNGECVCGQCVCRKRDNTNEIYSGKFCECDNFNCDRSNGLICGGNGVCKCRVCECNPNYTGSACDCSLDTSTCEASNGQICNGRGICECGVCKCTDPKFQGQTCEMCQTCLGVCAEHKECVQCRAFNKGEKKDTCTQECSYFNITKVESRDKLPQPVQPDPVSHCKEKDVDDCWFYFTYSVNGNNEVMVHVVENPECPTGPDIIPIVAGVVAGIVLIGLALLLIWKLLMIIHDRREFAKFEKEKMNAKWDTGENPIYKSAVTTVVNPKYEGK

Row | IC50 [1, 3] | IC50 [2, 4] | SMILES | IC50 [1] | IC50 [2]
1 | 20 to 100 nM | < 20 nM | CCC(CC)(C(=O)N[C@@H](Cc1ccc(NC(=O)c2ccccc2[N+](=O)[O-])cc1)C(=O)O)C(=O)N1CCCC1 [Example 97] | – | –
2 | – | – | CCC(CC)(C(=O)N[C@@H](Cc1ccc(OCc2c(Cl)cccc2Cl)cc1)C(=O)O)C(=O)N1CC(Br)C(Br)C1 (stereo partly drawn) [Example 79, N-(2-{[(trans-3,4-dibromopyrrolidine)-1-yl]carbonyl}-2-ethyl-butanoyl)-O-(2,6-dichlorobenzyl)-L-tyrosine] | 100 to 2000 nM | < 20 nM
3 | 100 to 2000 nM | 20 to 100 nM | O=C1CCN(C(=O)C2(C(=O)N[C@@H](Cc3ccc(OCc4c(Cl)cccc4Cl)cc3)C(=O)O)CC2)C1 [Example 59] | – | –
4 | 100 to 2000 nM | < 20 nM | CCC(CC)(C(=O)N[C@@H](Cc1ccc(OCc2c(Cl)cccc2Cl)cc1)C(=O)O)C(=O)N1CCC(=O)C1 [Example 69] | – | –
5 | 100 to 2000 nM | < 20 nM | CCC(CC)(C(=O)N[C@@H](Cc1ccc(OCc2c(Cl)cccc2Cl)cc1)C(=O)O)C(=O)N(C)C [Example 3] | – | –
6 | 100 to 2000 nM | 20 to 100 nM | CCC(CC)(C(=O)N[C@@H](Cc1ccc(OCc2c(Cl)cccc2Cl)cc1)C(=O)O)C(=O)N1CCC(O)CC1 [Example 49] | – | –
7 | 100 to 2000 nM | 20 to 100 nM | CCC(CC)(C(=O)N[C@@H](Cc1ccc(-n2c(=O)c3ccccc3n(Cc3ccc4ccccc4c3)c2=O)cc1)C(=O)O)C(=O)N1CCCC1 [Example 100] | – | –
8 | 100 to 2000 nM | 20 to 100 nM | CCC(CC)(C(=O)N[C@@H](Cc1ccc(-n2c(=O)c3ccccc3n(CC(=O)OC)c2=O)cc1)C(=O)O)C(=O)N1CCCC1 [Example 103] | – | –
9 | < 20 nM | < 20 nM | CCC(CC)(C(=O)N[C@@H](Cc1ccc(NC(=O)c2c(Cl)cccc2Cl)cc1)C(=O)O)C(=O)N1CCCC1 [Example 91, N-[2-(pyrrolidine-1-ylcarbonyl)-2-ethyl-butanoyl]-4-{[(2,6-dichlorophenyl)carbonyl]amino}-L-phenylalanine] | – | –
10 | 100 to 2000 nM | 20 to 100 nM | CCC(CC)(C(=O)N[C@@H](Cc1ccc(OCc2c(Cl)cccc2Cl)cc1)C(=O)O)C(=O)N1CCSCC1 [Example 36] | – | –
11 | 100 to 2000 nM | 20 to 100 nM | CCC(CC)(C(=O)N[C@@H](Cc1ccc(OCc2c(Cl)cccc2Cl)cc1)C(=O)O)C(=O)N1CC[C@@H](NC)C1 [Example 64] | – | –
12 | 100 to 2000 nM | < 20 nM | CCC(CC)(C(=O)N[C@@H](Cc1ccc(OCc2c(Cl)cccc2Cl)cc1)C(=O)O)C(=O)N1CC[C@H](F)C1 [Example 80] | – | –
13 | 20 to 100 nM | < 20 nM | CCCNc1ncc(Cl)c(C(=O)Nc2ccc(C[C@H](NC(=O)C(CC)(CC)C(=O)N3CCCC3)C(=O)O)cc2)n1 [Example 483] | – | –
14 | 20 to 100 nM | < 20 nM | CCC(CC)(C(=O)N[C@@H](Cc1ccc(NC(=O)c2cc(F)c(F)cc2Cl)cc1)C(=O)O)C(=O)N1CCCC1 [Example 95] | – | –
15 | 20 to 100 nM | < 20 nM | CCC(CC)(C(=O)N[C@@H](Cc1ccc(NC(=O)c2nc([S+](C)[O-])ncc2Cl)cc1)C(=O)O)C(=O)N1CCCC1 (stereo partly drawn) [Example 478, N-[2-(pyrrolidine-1-ylcarbonyl)-2-ethyl-butanoyl]-4-({[5-chloro-2-(methylsulfinyl)pyrimidine-4-yl]carbonyl}amino)-L-phenyl-alanine] | – | –
16 | 100 to 2000 nM | 20 to 100 nM | CCC(CC)(C(=O)N[C@@H](Cc1ccc(OCc2c(Cl)cccc2Cl)cc1)C(=O)O)C(=O)N1CCC[C@H]1COC [Example 50] | – | –
17 | 20 to 100 nM | < 20 nM | CCC(CC)(C(=O)N[C@@H](Cc1ccc(OCc2c(Cl)cccc2Cl)cc1)C(=O)O)C(=O)N1CC(O)C(Cl)C1 (stereo partly drawn) [Example 82] | – | –
18 | 20 to 100 nM | < 20 nM | CCC(CC)(C(=O)N[C@@H](Cc1ccc(NC(=O)c2cc(Br)ccc2Br)cc1)C(=O)O)C(=O)N1CCCC1 [Example 98] | – | –
19 | 20 to 100 nM | < 20 nM | CCC(CC)(C(=O)N[C@@H](Cc1ccc(NC(=O)c2nc(N3CCCC3)ncc2Cl)cc1)C(=O)O)C(=O)N1CCCC1 [Example 481] | – | –

Row | SMILES | IC50 [1, 3] | IC50 [2, 4] | IC50 [1] | IC50 [2]
20 | CCC(CC)(C(=O)N[C@@H](Cc1ccc(OCc2c(Cl)cccc2Cl)cc1)C(=O)O)C(=O)N1CCCNCC1 [Example 42] | 100 to 2000 nM | 20 to 100 nM | – | –
21 | CCC(CC)(C(=O)N[C@@H](Cc1ccc(OCc2c(Cl)cccc2Cl)cc1)C(=O)O)C(=O)N1CCOCC1 [Example 34] | 100 to 2000 nM | 20 to 100 nM | – | –
